Reference: US6569633B1, “Modulation of the sulfonylurea receptor and calcium in adipocytes for treatment of obesity/diabetes” (Artecel Science, Inc., priority 1998, dated 2003)
pEC50: −log10 of the molar value.

Legend:
Format in all cases: cell-based
human adipocytes = assay: Intracellular Ca2+ ([Ca2+]i) by fura-2 fluorometry in isolated human adipocytes
Experimental: FIG. 2. Glibenclamide stimulation of [Ca^2+]i in isolated human adipocyte. [Ca^2+]i in isolated human adipocytes was determined fluorometrically as previously described (4,7). Briefly, the human adipocytes isolated as described above were incubated in DMEM medium overnight for cell recovery. Prior to [Ca^2+]i measurement, adipocytes were pre-incubated in serum-free medium for 2 hrs, rinsed with HBSS solution containing the following components in mM: NaCl 138, CaCl2 1.8, MgSO4 0.8, NaH2PO4 0.9, NaHCO3 4, glucose 20, glutamine 6, HEPES 20 and BSA 1%. Cells were then loaded with fura-2 acetoxymethyl ester (10 μM) in the same buffer for 45 min at 37° C. in the dark with continuous shaking. To remove extracellular dye, cells were rinsed with HBSS for 3 times and resuspended in this solution at a concentration of 2×10^5 cells/ml. [Ca^2+]i was measured using dual excitation (340 and 380 nm) and single emission (510 nm) fluorometry. Following the establishment of stable baseline, the response to glibenclamide (10 and 20 μM) was determined. Digitonin (25 μM) and Tris/EGTA (100 mM) were used to measure maximal and minimal fluorescence to calibrate the signals, and final [Ca^2+]i was then calculated by the equation of Grynkiewicz et al. (17). […] Glibenclamide (Glib) was added at time designated by the arrow. B. The dose-responsive effect of glibenclamide on [Ca^2+]i in human adipocytes. Glibenclamide was added at 10 and 20 µM at the indicated times. *p<0.05 vs. Control, **p<0.05 vs. 10 μM glibenclamide.
The functionality of the SUR1 receptor was determined with respect to calcium mobilization and small molecule effects. [Ca^2+]i response was measured fluorometrically in isolated human adipocytes using a standard method (2,16). Briefly, isolated human adipocytes were incubated in DMEM or any other suitable medium such as Ham's F-10, Modified Eagle's media plus 5-10% fetal calf serum overnight for cell recovery. Prior to [Ca^2+]i measurement, adipocytes were pre-incubated in serum-free medium for 2 hrs, rinsed with HBSS solution containing the following components in mM: NaCl 138, CaCl2 1.8, MgSO4 0.8, NaH2PO4 0.9, NaHCO3 4, glucose 20, glutamine 6, HEPES 20 and BSA 1%. Cells were then loaded with fura-2 acetoxymethyl ester (10 μM) in the same buffer for 30-60 min at 37° C. in dark with continuous shaking. To remove extracellular dye, cells were rinsed with HBSS for three times and resuspended in this solution at a concentration of 1-10×10^5 cells/ml. [Ca^2+]i was measured using dual excitation (340 and 380 nm) and single emission (510 nm) fluorometry. Following the establishment of stable baseline, the response to a SUR agonist such as glibenclamide (1-20 μM) can be determined. Digitonin (25 μM) and Tris/EGTA (100 mM) were used to measure maximal and minimal fluorescence to calibrate the signals, and final [Ca^2+]i was then calculated by a known method such as described in Grynkiewicz et al (17).
Correlation of lipolysis with flux of intracellular calcium ([Ca^2+]i) concentration is then performed. [Ca^2+]i is measured in primary adipocytes. For primary adipocytes, 3 ml of cells are resuspended in 6 ml of HBSS and fura-2/AM was loaded for 80 min at 37° C. Extracellular fura-2/AM is washed three times with HBSS by centrifugation. [Ca^2+]i levels are then measured fluorometrically in suspensions using dual excitation (340 and 380 nm)/single emission (510 nm) fluorometry and [Ca^2+]i is calculated by the computer in the fluorometer. As a control, after loading fura-2/AM cells are pretreated with nitrendipine (RBI, Natick, Mass.) (30 μM, final concentration) for 10 min at 37° C.

human preadipocytes = assay: Intracellular Ca2+ ([Ca2+]i) response in human preadipocytes
[1] = tested on: GPDH activity in human adipocytes; assay: GPDH activity in human adipocytes
Experimental: FIG. 3. The lipogenic effect of glibenclamide in human adipocytes. As an indicator of lipogenic stimulation, both FAS and GPDH activity were measured. A. Glibenclamide stimulation of FAS activity. Human adipocytes were treated with 10 μM glibenclamide alone, 10 μM glibenclamide plus 10 μM diazoxide or 10 μM glibenclamide plus 30 μM nitrendipine for 48 hr. FAS was measured as described (6, 14). *p<0.001 vs. Control. B. Glibenclamide stimulation of GPDH activity. Human adipocytes were treated with 10 μM glibenclamide or 10 μM glibenclamide plus 10 μM diazoxide for 48 hr. GPDH activity was measured as described (14). *p<0.01 vs. Control.
To study the role of adipocyte SUR1 in regulating lipogenesis, we treated human adipocyte with SUR1 agonist and antagonist using FAS and GPDH activities as lipogenic markers. Human adipocytes were incubated in 24-well plates with the treatments indicated for 48 hr. FAS and GPDH activities were determined spectrophotometrically in crude cytosolic extracts of human adipocytes by measuring the oxidation rate of NADPH or NADH respectively, as previously described (14). The protein correction was measured by a modified Bradford method using Coomassie Blue dye (Pierce, Rockford, Ill.).

With `COc1ccc(Cl)cc1C(=O)NCCc1ccc(S(=O)(=O)NC(=O)NC2CCCCC2)cc1` [glibenclamide] the “[Ca2+]i response” value (human adipocytes; 20 µM glibenclamide (FIG. 2A)) was “increase in intracellular calcium”, the “[Ca2+]i response” value (human adipocytes; 1-20 μM, dose-dependent manner) was “sustained increases” and the pEC50 (human adipocytes; Adipocyte, human adipocytes, read-out: EC50 for increase in intracellular free calcium) was about 6.00. The “maximum response of intracellular free calcium” value (human adipocytes; graded doses, over a baseline of 190 nM) was 388 ± 72 nM, the “[Ca2+]i response” value (human preadipocytes) was “did not exhibit any [Ca^2+]i response” and the “increase in GPDH activity” value ([1]; 10 μM glibenclamide, 48 hr) was 48%. For the same molecule, the GPDH activity ([1]; 10 μM glibenclamide, 48 hr, control 554.0±33.0) was 821.0±73.4 NADH nM/min/mg protein and the “increased GPDH activity” value ([1]; SUR agonists such as glibenclamide, general description) was 50-100%.
